Source: PubChem BioAssay AID504765 (Sanford-Burnham Center for Chemical Genomics, 2011)
Active and inactive are the calls of the source. How the calls were made is not given here.

target: glucose-6-phosphate dehydrogenase-6-phosphogluconolactonase (Plasmodium falciparum 3D7); assay: concentration-dependent PfGluPho enzyme inhibition – biochemical, fluorescence intensity, dose response (AID 504765); conditions: Recombinant PfG6PD enzyme, fluorescence intensity (NADPH)

SMILES | IC50
CN(C)c1ccc2nc3ccc(=O)cc-3sc2c1 | 13.2 µM
CC(=O)Nc1cc2c(cc1[N+](=O)[O-])-c1ccccc1C2O (configuration not stated) | 20 µM
Cn1c(=O)c2c([nH]c(=S)n2CCCc2ccccc2)n(C)c1=O | 19.5 µM
COC1=CC(=O)C=C(OC)C1(O)CC(C)=O | 5.91 µM
Clc1nssc1=Nc1nncs1 | 14.3 µM
COc1ccc(CCn2c(NN)nc3c2c(=O)[nH]c(=O)n3C)cc1 | 7.35 µM
CCOc1ccccc1CNc1ccc(O)cc1 | 19.2 µM
Cc1ccc2nc(SCC(=O)NC3CCCc4ccccc43)[nH]c2c1 (configuration not stated) | 9.6 µM
COc1ccc(NC(=S)N(CCC(C)C)C2CCN(C(C)C)CC2)cc1Cl | 14.3 µM
COc1cc(C(=O)ON=C2C=C(C)C(=O)C(C)=C2)cc(OC)c1OC | 5.09 µM
CC(SCC(=O)Nc1ccccc1)c1nc2ccccc2c(=O)[nH]1 (configuration not stated) | 5.29 µM
Cc1ccc(NC(=O)Cn2sc3ccccc3c2=O)cc1 | 4.24 µM
Cc1ccc(/C=C/C(=O)NCC2COc3ccccc3O2)o1 (configuration not stated) | 3.66 µM
O=C(CCC(=O)OCC(=O)c1ccc([N+](=O)[O-])cc1)Nc1ccccc1Cl | 6.61 µM
CCNc1ccccc1CP(=O)(c1ccccc1)c1ccccc1O (configuration not stated) | 6.81 µM
O=C(N/N=C/c1cccc([N+](=O)[O-])c1)C(=O)N1CCCCCC1 | 5.45 µM
O=C1Nc2ccccc2C(=O)C1(Cl)Cc1ccccc1 (configuration not stated) | 9.57 µM
C[C@H](CO)N1C[C@H](C)[C@@H](CN(C)C(=O)Nc2ccc(C(F)(F)F)cc2)Oc2c(cccc2N(C)C)C1=O | 5.05 µM
CC1(OC(=O)C2CCCC2)C(=O)C=C2C=C(c3ccsc3)N(CC3CC3)C=C2C1=O (configuration not stated) | 7.8 µM
CCN(CC)c1ccc(C(=C2C=CC(=[N+](CC)CC)C=C2)c2ccc(N(CC)CC)cc2)cc1 | 10.3 µM
O=C(Cn1sc2ccccc2c1=O)Nc1ccc(Cl)cc1 | 3.26 µM

SMILES | IC50
COc1cccc(C2(c3cccc(OC)c3)CC2C(=O)Nc2ccc(F)cc2)c1 (configuration not stated) | 10.3 µM
CN(C)c1cccc2c1c(NC(=O)c1ccc(Cl)cc1)nn2C | 8.65 µM
Cn1sc2ccccc2c1=O | 5.82 µM
CC1=CC(C)(C)Nc2ccc(OC(=O)CN3C(=O)c4cccc5cccc(c45)C3=O)cc21 | 6.28 µM
O=C(CCc1ccc(S(=O)(=O)N2CCOCC2)cc1)N/N=C/c1ccc(O)c(O)c1O | 5.82 µM
Nc1c(O)cccc1C(=O)O | 1.44 µM
CCOc1cc(NCc2ccccc2)c2ncn(C(C)C)c2c1 | > 80 µM (inactive)
Cc1cc(C)c2c(=N)c3ccccc3n(CCCCCCCCn3c4ccccc4c(=N)c4c(C)cc(C)nc43)c2n1 | 10.1 µM
O=C(Nc1nnc(S(=O)(=O)N2CCCC2)s1)c1cccc([N+](=O)[O-])c1 | 4.17 µM
O=C(Nc1ccc(N2CCCC2)cc1)c1cccc(-c2cc3ccccc3oc2=O)c1 | inactive
Cc1cc(C(=O)O)ccc1-n1c(C)cc(C=C2C(=O)c3ccccc3C2=O)c1C | 7.14 µM
NNC(=O)CN1C(c2ccccc2Br)=Nc2ccc(Br)cc2C1c1ccccc1 (configuration not stated) | 3.38 µM
COc1cccc(CNc2ccc3[nH]c(=O)[nH]c3c2)c1OCc1ccc(F)cc1 | inactive
O=C(CSc1nc2ccccc2[nH]1)NC1CCCc2ccccc21 (configuration not stated) | 13.4 µM
COc1cccc(C=Nc2cc(C(C)C)c(O)cc2C)c1O | 5.48 µM
O=S(=O)(Nc1ccc(Cl)cc1)c1ccc(N2CCOCC2)c(NC(=S)NCCN2CCOCC2)c1 | 15.1 µM
CCCN1CCc2cccc3c2[C@H]1Cc1ccc(O)c(O)c1-3 | 15 µM
Cc1cc(O)c(C(C)C)cc1N=Cc1ccccc1[N+](=O)[O-] | 3.44 µM
Oc1cc(-n2cccn2)c(O)cc1-n1cccn1 | 6.03 µM
COC(=O)CCC(=O)OC1(C)C(=O)C2=CN(c3ccc(OC)cc3)C(c3ccc(OC)cc3)=CC2=C(Br)C1=O (configuration not stated) | 3.09 µM
CC(NC(=O)c1sc2cc([N+](=O)[O-])ccc2c1Cl)C(C)(C)C (configuration not stated) | 18.5 µM

SMILES | IC50
NC1CCc2cc(O)c(O)cc2C1 (configuration not stated) | inactive
COC(=O)[C@H](C)NC(=O)c1cc2c(cn1)[nH]c1ccccc12 | inactive
C=CCOc1ccc(CNc2ccc3[nH]c(=O)[nH]c3c2)cc1OC | 6.61 µM
CCOC(=O)c1c(OCC)[nH]c2c1cc(O)c1ccccc12 | inactive
CCOc1ccc(Cl)cc1/C=N/NC(N)=O | 12.4 µM
Cc1ccc(NC(=O)c2cc(N3C(=O)C=CC3=O)ccc2N2CCOCC2)cc1 | 15.7 µM
Cc1cc(C)nc(/N=C(\N)Nc2ccccc2-c2ccccc2)n1 | 8.17 µM
O=C1NC(=O)C(=Cc2ccc(-c3ccccc3[N+](=O)[O-])o2)C(=O)N1 | 10.9 µM
COc1cc(/C=N/n2cc(-c3ccccc3)[nH]c2=S)cc(OC)c1O | 19.6 µM
COc1ccc(C(=O)Nc2nnc(S(=O)(=O)N3CCOCC3)s2)cc1 | 7 µM
CN1CCc2cccc3c2[C@@H]1Cc1ccc(O)c(O)c1-3 | 8.36 µM
CC(C)Sc1nnc(NC(=O)c2ccc3c(c2)OCO3)s1 | 4.21 µM
COc1cc(-c2cc(=O)c3c(O)c(OC)c(OC)c(O)c3o2)ccc1O | 8.95 µM
O=C(CN1C(=O)C2C3C=CC(C3)C2C1=O)OCC(=O)c1ccc([N+](=O)[O-])cc1 (configuration not stated) | 9.71 µM
Cc1ccccc1-n1sc2cc(F)ccc2c1=O | 2.15 µM
Cc1cc(C)c2c(=O)n(CC(=O)Nc3ccc(Br)c(C)c3)sc2n1 | 2.62 µM
CN1C(=O)CSc2ccc(NC(=O)N3CCc4ccccc43)cc21 | 15.2 µM
CC1(OC(=O)C2CCCC2)C(=O)C=C2C=C(c3ccsc3)N(CCc3c[nH]c4ccccc34)C=C2C1=O (configuration not stated) | 4.97 µM
N#Cc1ccc(N=c2ssnc2Cl)cc1 | 13.8 µM
[O-]/[N+](=C\c1ccccc1)c1ccc(Br)cc1 | 0.84 µM
NS(=O)(=O)c1ccc(-c2ccc(C=C3C(=O)NC(=O)NC3=O)o2)cc1 | 3.14 µM

SMILES | IC50
CCc1nnc(NC(=O)c2ccc(Cl)nc2)s1 | 15.5 µM
O=c1c2ccccc2sn1-c1ccc(S(=O)(=O)N2CCCC2)cc1 | 6.88 µM
CCOc1ccc(CNc2ccc(N3CCCC3)cc2)cc1 | 2.64 µM
O=C(O)c1ccccc1NS(=O)(=O)c1cccc(-n2sc3ccccc3c2=O)c1 | 5.54 µM
Cc1ccc(NS(=O)(=O)c2ccccc2Cl)c2c1CC(C)(C)O2 | 8.18 µM
CCOc1ccc2ccccc2c1/C=N/NC(=O)c1ccncc1 | 3.49 µM
Cn1c(=O)c2[nH]c(-c3ccccc3)c(O)c2n(C)c1=O | 9.54 µM
COc1cc(N(C)C)ccc1C=c1c2ccccc2n2c1cc(-c1ccccc1)[n+]2C | 9.08 µM
Oc1ccc(C23CC4CC(CC(C4)C2)C3)cc1O | inactive
O=[N+]([O-])c1c(NCCO)cc(Sc2nc3ccccc3s2)c2nonc12 | 10.2 µM
O=C1Nc2cc(C(=O)NCCCN3CCCC3)ccc2S/C1=C/c1cccc(Cl)c1 | 17.9 µM
Nn1c(CSc2nc3ccccc3o2)nnc1CSc1nc2ccccc2o1 | 11.5 µM
O=C(Nc1nnc(S(=O)(=O)N2CCCCCC2)s1)c1cccc(Br)c1 | 15.1 µM
COc1ccc(C2(CNC(=O)c3ccc(OC)c([N+](=O)[O-])c3)CCCCC2)cc1OC | 8.33 µM
O=C1C=CC(=O)N1CCCCCCCCCCN1C(=O)C=CC1=O | 13.5 µM
O=c1[nH]nc(CNc2ccc(O)cc2)c2ccccc12 | inactive
O=C1C=CC(=O)N1c1ccc2c(c1)C(NC(=O)C(F)(F)F)c1ccccc1-2 (configuration not stated) | 9.14 µM
O=C(O)c1ccc(-n2c(-c3cc(-c4ccco4)[nH]n3)n[nH]c2=S)cc1 | inactive
CC1=C(C)CS(=O)N(S(=O)(=O)c2ccc(Cl)cc2)C1 (configuration not stated) | inactive
